In US20250144067A1, “PERSONALIZED STARVATION THERAPY FOR CANCER” (Faeth Therapeutics, Inc., priority 2021, published 2025):
Structures can show the parent of a compound that is named as a salt. Where two headings read alike, the source gives them in different places.

Tests used:
[1] = test system: NCI-H292 lung cancer cells; assay: FDA drug screening, complete media vs cholesterol-free media with simvastatin (TABLE 2); format: cell-based, human
[2] = test system: NCI-H292 lung cancer cells; assay: FDA drug screening, complete media vs cholesterol-free media without statin (TABLE 1); format: cell-based, human
[3] = NCI-H292 cells, cholesterol-free media with simvastatin 0.04 μM, FDA drug library screen (TABLE 2)
[4] = NCI-H292 cells, complete media, FDA drug library screen (TABLE 2)
[5] = complete media minus cholesterol-free media + simvastatin (0.04 μM), >0 enhanced anti-cancer activity, about 0 neutral, <0 antagonist
[6] = NCI-H292 cells, cholesterol-free media without statin, FDA drug library screen
[7] = complete vs cholesterol-free media, >0 enhanced anti-cancer activity, about 0 neutral, <0 antagonist
[8] = NCI-H292 cells, drug in cholesterol-free media with simvastatin 0.04 μM
[9] = NCI-H292 cells, drug in complete media
[10] = complete media vs cholesterol-free media + simvastatin (0.04 μM), >0 enhanced anti-cancer activity, about 0 neutral, <0 antagonist
[11] = NCI-H292 cells, cholesterol-free media without statin
[12] = complete vs cholesterol-free media, greater than 0 enhanced anti-cancer activity, about 0 neutral, below 0 antagonists
[13] = NCI-H292 cells, cholesterol-free media with simvastatin 0.04 μM, cell growth value in FDA drug screen
[14] = NCI-H292 cells, complete media, cell growth value in FDA drug screen
[15] = complete media minus cholesterol-free media + simvastatin, >0 enhanced anti-cancer activity, about 0 neutral, <0 antagonist
[16] = Complete minus Cholesterol-free, greater than 0 enhanced anti-cancer activity, about 0 neutral, below 0 antagonists
[17] = NCI-H292 cells in cholesterol-free media without statin
[18] = NCI-H292 cells in complete media
[19] = NCI-H292 cells, FDA drug library screen, cholesterol-free media with simvastatin 0.04 μM
[20] = NCI-H292 cells, FDA drug library screen, complete media
[21] = Complete minus Cholesterol-free, […]
[22] = NCI-H292 cells, complete media, FDA drug library screen
[23] = Complete minus Cholesterol-free, >0 enhanced anti-cancer activity, about 0 neutral, <0 antagonist
[24] = NCI-H292 cells, FDA library drug in cholesterol-free media with simvastatin 0.04 μM
[25] = NCI-H292 cells, FDA library drug in complete media
[26] = complete media vs cholesterol-free media + simvastatin (0.04 μM), […]

## O=C(O)Cc1ccccc1Nc1c(Cl)cccc1Cl [Diclofenac (diethylamine)]
[1]; [3]
  Cholesterol-free media + simvastatin (0.04 μM): 0.9893
[1]; [4]
  Complete Media: 0.9206
[1]; [5]
  Difference: −0.07
[2]; [6]
  Cholesterol-free: 0.7838
[2]; [7]
  Difference: 0.36

## Nc1ccncc1N [Amifampridine]
[1]; [8]
  Cholesterol-free media + simvastatin (0.04 μM): 1.299
[1]; [9]
  Complete Media: 1.071
[1]; [10]
  Difference: −0.23
[2]; [11]
  Cholesterol-free: 1.476
[2]; NCI-H292 cells, complete media
  Complete: 1.141
[2]; [12]
  Difference: −0.33

## CN(C)CCCN1c2ccccc2CCc2ccc(Cl)cc21 [Clomipramine (hydrochloride)]
[1]; [13]
  Cholesterol-free media + simvastatin (0.04 μM): 0.9105
[1]; [14]
  Complete Media: 1.028
[1]; [15]
  Difference: 0.12
[2]; [16]
  Difference: −0.54
[2]; [17]
  Cholesterol-free: 1.47
[2]; [18]
  Complete: 0.9281

## COc1ccc(Cl)cc1C(=O)NCCc1ccc(S(=O)(=O)NC(=O)NC2CCCCC2)cc1 [Glibenclamide]
[1]; [19]
  Cholesterol-free media + simvastatin (0.04 μM): 1.112
[1]; [20]
  Complete Media: 0.9567
[1]; [10]
  Difference: −0.16
[2]; [16]
  Difference: −0.64
[2]; [18]
  Complete: 0.9798

## CCCCCCCCCCCCCCCC[n+]1ccccc1.O.[Cl-] [Cetylpyridinium (chloride monohydrate)]
[1]; NCI-H292 cells, cholesterol-free media with simvastatin 0.04 μM, […]
  Cholesterol-free media + simvastatin (0.04 μM): 0.1519
[1]; NCI-H292 cells, complete media, […]
  Complete Media: 0.2714
[1]; complete media minus cholesterol-free media + simvastatin, […]
  Difference: 0.12
[2]; [21]
  Difference: 0.03
[2]; [6]
  Cholesterol-free: −0.01651
[2]; [22]
  Complete: 0.01449

## COc1ccccc1OCC(O)CN1CCN(CC(=O)Nc2c(C)cccc2C)CC1 (stereo not drawn) [Ranolazine (dihydrochloride)]
[1]; [3]
  Cholesterol-free media + simvastatin (0.04 μM): 0.9671
[1]; [4]
  Complete Media: 0.9017
[1]; [5]
  Difference: −0.07
[2]; [23]
  Difference: −0.23
[2]; [11]
  Cholesterol-free: 1.148
[2]; NCI-H292 cells, complete media
  Complete: 0.9194

## Nc1ccn([C@@H]2O[C@H](CO)[C@@H](O)[C@H]2O)c(=O)n1 [Cytidine]
[1]; [8]
  Cholesterol-free media + simvastatin (0.04 μM): 1.411
[1]; [9]
  Complete Media: 1.221
[1]; [10]
  Difference: −0.19
[2]; [23]
  Difference: −0.23
[2]; [11]
  Cholesterol-free: 1.318
[2]; NCI-H292 cells, complete media
  Complete: 1.09

## O=C(O)c1ccc2nc(-c3cc(Cl)cc(Cl)c3)oc2c1 [Tafamidis]
[1]; [24]
  Cholesterol-free media + simvastatin (0.04 μM): 1.307
[1]; [25]
  Complete Media: 0.9388
[1]; [10]
  Difference: −0.37
[2]; [6]
  Cholesterol-free: 0.399
[2]; [22]
  Complete: 0.8565
[2]; [7]
  Difference: 0.46

## COc1cccc2c1cc([N+](=O)[O-])c1c(C(=O)O)cc3c(c12)OCO3 [Aristolochic acid A]
[1]; [24]
  Cholesterol-free media + simvastatin (0.04 μM): 0.923
[1]; [25]
  Complete Media: 0.5762
[1]; [26]
  Difference: −0.35
[2]; [21]
  Difference: −0.56
[2]; [17]
  Cholesterol-free: 1.282
[2]; [18]
  Complete: 0.7241

## OCC(CO)N[C@H]1C[C@](O)(CO)[C@@H](O)[C@H](O)[C@H]1O [Voglibose]
[1]
  Cholesterol-free media + simvastatin (0.04 μM): 0.9097
  Complete Media: 0.6837
  Difference: −0.23
[2]
  Cholesterol-free: 1.147
  Complete: 1.027
  Difference: −0.12

## CCc1c(C)[nH]c2c1C(=O)C(CN1CCOCC1)CC2 (stereo not drawn) [Molindone (hydrochloride)]
[1]; [19]
  Cholesterol-free media + simvastatin (0.04 μM): 0.9443
[1]; [20]
  Complete Media: 0.8609
[1]; [10]
  Difference: −0.08
[2]; [23]
  Difference: −0.28
[2]; [11]
  Cholesterol-free: 1.138
[2]; NCI-H292 cells, complete media
  Complete: 0.8619

## O=C(O)CSc1nnc(Br)n1-c1ccc(C2CC2)c2ccccc12 [Lesinurad]
[1]; [13]
  Cholesterol-free media + simvastatin (0.04 μM): 0.9083
[1]; [14]
  Complete Media: 0.9388
[1]; [15]
  Difference: 0.03
[2]; Complete minus Cholesterol-free, greater than 0 enhanced anti-cancer activity, about 0 neutral, below 0 antagonist
  Difference: −0.12
[2]; NCI-H292 cells, FDA drug library screen, cholesterol-free media without statin
  Cholesterol-free: 1.092
[2]; [20]
  Complete: 0.9716

## Clc1ccc2c(c1)CCc1cccnc1C2=C1CCNCC1 [Desloratadine]
[1]
  Cholesterol-free media + simvastatin (0.04 μM): 0.922
  Complete Media: 0.6254
  Difference: −0.30
[2]
  Cholesterol-free: 1.114
  Complete: 0.8419
  Difference: −0.27

## Verteporfin
[1]; [19]
  Cholesterol-free media + simvastatin (0.04 μM): 0.616
[1]; [20]
  Complete Media: 0.9298
[1]; [15]
  Difference: 0.31
[2]; [23]
  Difference: −0.04
[2]; [6]
  Cholesterol-free: 0.26
[2]; [22]
  Complete: 0.2188

## COc1ccc(CCN(C)CCC[C@@](C#N)(c2ccc(OC)c(OC)c2)C(C)C)cc1OC.Cl [(S)-Verapamil (hydrochloride)]
[1]; [8]
  Cholesterol-free media + simvastatin (0.04 μM): 1.086
[1]; [9]
  Complete Media: 0.9249
[1]; [26]
  Difference: −0.16
[2]; [21]
  Difference: −0.20
[2]; [11]
  Cholesterol-free: 1.169
[2]; NCI-H292 cells, complete media
  Complete: 0.9711

## CCS(=O)(=O)N1CC(CC#N)(n2cc(-c3ncnc4[nH]ccc34)cn2)C1 [Baricitinib]
[1]; [24]
  Cholesterol-free media + simvastatin (0.04 μM): 1.286
[1]; [25]
  Complete Media: 0.9674
[1]; [10]
  Difference: −0.32
[2]; [23]
  Difference: −0.22
[2]; [11]
  Cholesterol-free: 0.7863
[2]; NCI-H292 cells, complete media
  Complete: 0.5701

## CNC(=O)c1cc(Oc2ccc(NC(=O)Nc3ccc(Cl)c(C(F)(F)F)c3)cc2)ccn1 [Sorafenib]
[1]; [19]
  Cholesterol-free media + simvastatin (0.04 μM): 0.7364
[1]; [20]
  Complete Media: 0.915
[1]; [15]
  Difference: 0.18
[2]; [6]
  Cholesterol-free: 0.8045
[2]; [22]
  Complete: 1.015
[2]; [7]
  Difference: 0.21

## Nc1ncn([C@H]2C[C@H](O)[C@@H](CO)O2)c(=O)n1 [Decitabine]
[1]; [13]
  Cholesterol-free media + simvastatin (0.04 μM): 0.7335
[1]; [14]
  Complete Media: 0.7733
[1]; [15]
  Difference: 0.04
[2]; [23]
  Difference: −0.25
[2]; [11]
  Cholesterol-free: 0.8074
[2]; NCI-H292 cells, complete media
  Complete: 0.559

## C[C@H](CCC(=O)NCCS(=O)(=O)[O-])[C@H]1CC[C@H]2[C@@H]3[C@@H](O)C[C@@H]4C[C@H](O)CC[C@]4(C)[C@H]3CC[C@]12C.[Na+] [Taurochenodeoxycholic acid (sodium salt)]
[1]; [24]
  Cholesterol-free media + simvastatin (0.04 μM): 1.88
[1]; [25]
  Complete Media: 1.535
[1]; [26]
  Difference: −0.35
[2]; [21]
  Difference: −0.22
[2]; [11]
  Cholesterol-free: 0.9501
[2]; NCI-H292 cells, complete media
  Complete: 0.7299

## Chloroquine (phosphate)
[1]
  Cholesterol-free media + simvastatin (0.04 μM): 1.286
  Complete Media: 0.98
  Difference: −0.31
[2]
  Cholesterol-free: 1.557
  Complete: 0.9171
  Difference: −0.64

## NS(=O)(=O)Cc1noc2ccccc12 [Zonisamide]
[1]; [8]
  Cholesterol-free media + simvastatin (0.04 μM): 1.285
[1]; [9]
  Complete Media: 1.066
[1]; [10]
  Difference: −0.22
[2]; [16]
  Difference: −0.51
[2]; [18]
  Complete: 1.109

## C#CC1(O)CC[C@H]2[C@@H]3CCC4=CC(=O)CC[C@@H]4[C@H]3CC[C@@]21CC (stereo partly drawn) [Norgestrel]
[1]; [24]
  Cholesterol-free media + simvastatin (0.04 μM): 1.456
[1]; [25]
  Complete Media: 1.004
[1]; [10]
  Difference: −0.45
[2]; [11]
  Cholesterol-free: 1.349
[2]; NCI-H292 cells, complete media
  Complete: 1.022
[2]; [12]
  Difference: −0.33

## C=CCNc1nc(NCC=C)nc(N2CCN(C(c3ccc(F)cc3)c3ccc(F)cc3)CC2)n1 [Almitrine mesylate]
[1]; [19]
  Cholesterol-free media + simvastatin (0.04 μM): 0.7616
[1]; [20]
  Complete Media: 0.6708
[1]; [10]
  Difference: −0.09
[2]; [6]
  Cholesterol-free: 0.7257
[2]; [22]
  Complete: 0.8177
[2]; [7]
  Difference: 0.09
